Test results reported in ChEMBL document CHEMBL3045030, “Insect antifeedants from tropical plants II: structure of zumsin” (2002).

Assays:
Assay type in all cases: functional
Pectinophora gossypiella [1] = experiment: Antifeedant activity against second-instar larvae of Pectinophora gossypiella (pink bollworm) in cotton glandless leaves assessed as 50% protection of host plant substrate after 48 hr
Spodoptera frugiperda [2] = experiment: Antifeedant activity against second-instar larvae of Spodoptera frugiperda (fall armyworm) in cotton glandless leaves assessed as 50% protection of host plant substrate after 48 hr
Pectinophora gossypiella [3] = experiment: Antifeedant activity against second-instar larvae of Pectinophora gossypiella (pink bollworm) in cotton glandless leaves assessed as 95% protection of host plant substrate after 48 hr
Spodoptera frugiperda [4] = experiment: Antifeedant activity against second-instar larvae of Spodoptera frugiperda (fall armyworm) in cotton glandless leaves assessed as 95% protection of host plant substrate after 48 hr

CC(=O)O[C@@H]1[C@@H]2[C@@]34CC(=O)C[C@@H]3OC(C)(C)[C@@H]4CC(=O)[C@@]2(C)[C@@]23O[C@@H]2C[C@H](c2ccoc2)[C@]3(C)[C@H]1OC(C)=O [ZUMSIN]
PC50 (Pectinophora gossypiella [1]): 1 microg/cm2
PC50 (Spodoptera frugiperda [2]): 2 microg/cm2
PC95 (Pectinophora gossypiella [3]): 8 microg/cm2
PC95 (Spodoptera frugiperda [4]): 16 microg/cm2
